Laboratory results published in patent US6737383B1, “Herbicidal oxadiazolidines” (priority 1999, dated 2004).

Key:
[1] = system: bedstraw; experiment: Test B pre/postemergence bedstraw; assay type: in vivo, Galium aparine
In short: (§1)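 Response is a visual 0-to-10 score relative to untreated plants, where 0 means no effect and 10 means complete control, taken twelve to sixteen days after application. Treatments went onto soil at planting and onto foliage of 1- to 4-leaf plants, using a surfactant-containing non-phytotoxic solvent.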

[2] = system: blackgrass; experiment: Test B pre/postemergence blackgrass; assay type: in vivo, Alopecurus myosuroides
In short: as §1

[3] = system: surinam grass; experiment: Test B pre/postemergence surinam grass; assay type: in vivo, Brachiaria decumbens
In short: as §1

[4] = system: cocklebur; experiment: Test B pre/postemergence cocklebur; assay type: in vivo, Xanthium strumarium
In short: as §1

[5] = system: corn; experiment: Test B pre/postemergence corn; assay type: in vivo, Zea mays
In short: as §1

[6] = system: crabgrass; experiment: Test B pre/postemergence crabgrass; assay type: in vivo, Digitaria sanguinalis
In short: as §1

[7] = system: giant foxtail; experiment: Test B pre/postemergence giant foxtail; assay type: in vivo, Setaria faberii
In short: as §1

[8] = system: morningglory; experiment: Test B pre/postemergence morningglory; assay type: in vivo, Ipomoea hederacea
In short: as §1

[9] = system: pigweed; experiment: Test B pre/postemergence pigweed; assay type: in vivo, Amaranthus retroflexus
In short: as §1

[10] = system: rape; experiment: Test B pre/postemergence rape; assay type: in vivo, Brassica napus
In short: as §1

[11] = system: soybean; experiment: Test B pre/postemergence soybean; assay type: in vivo, Glycine max
In short: as §1

[12] = system: sugar beet; experiment: Test B pre/postemergence sugar beet; assay type: in vivo, Beta vulgaris
In short: as §1

[13] = system: velvetleaf; experiment: Test B pre/postemergence velvetleaf; assay type: in vivo, Abutilon theophrasti
In short: as §1

[14] = system: wheat; experiment: Test B pre/postemergence wheat; assay type: in vivo, Triticum aestivum
In short: as §1

[15] = system: wild oat; experiment: Test B pre/postemergence wild oat; assay type: in vivo, Avena fatua
In short: as §1

[16] = system: purple nutsedge; experiment: Test B pre/postemergence purple nutsedge; assay type: in vivo, Cyperus rotundus
In short: as §1

[17] = system: rice; experiment: Test B flood test rice; assay type: in vivo, Oryza sativa
In short: (§2)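 Read-out is a visual response score from 0 (no effect) to 10 (complete control), assigned by comparison with untreated controls. Treatment was applied at the 2-leaf stage, and plants stayed in the greenhouse for twelve to sixteen days before scoring.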

[18] = system: smallflower flatsedge; experiment: Test B flood test smallflower flatsedge; assay type: in vivo, Cyperus difformis
In short: as §2

[19] = system: duck salad; experiment: Test B flood test duck salad; assay type: in vivo, Heteranthera limosa
In short: as §2

[20] = system: bamyardgrass; experiment: Test B flood test barnyardgrass; assay type: in vivo, Echinochloa crus-galli
In short: as §2

[21] = Preemergence, Rate 62 g/ha, scale of 0 to 10 where 0 is no effect and 10 is complete control
[22] = Preemergence, Rate 250 g/ha, scale of 0 to 10 where 0 is no effect and 10 is complete control
[23] = Preemergence, Rate 500 g/ha, scale of 0 to 10 where 0 is no effect and 10 is complete control
[24] = Rate 62 g/ha, Postemergence, scale of 0 to 10 where 0 is no effect and 10 is complete control
[25] = Rate 125 g/ha, Postemergence, scale 0 to 10
[26] = Rate 125 g/ha, Preemergence, scale of 0 to 10 where 0 is no effect and 10 is complete control
[27] = Rate 500 g/ha, Postemergence, scale 0 to 10, 0 no effect, 10 complete control
[28] = Rate 62 g/ha, headed Pre-emergence (flood test species), scale 0 to 10 (0 no effect, 10 complete control)
[29] = Rate 125 g/ha, Pre-emergence, flood test species, scale 0 to 10 where 0 is no effect and 10 is complete control
[30] = Rate 250 g/ha, Pre-emergence, flood-test species, scale 0 to 10, 0 is no effect, 10 is complete control
[31] = Rate 500 g/ha, Pre-emergence, flood test species, scale 0 to 10 (0 no effect, 10 complete control)

CC(C)N(C(=O)n1oc(=O)n(CCC2CCCCC2)c1=O)c1ccc(F)cc1 [Compound 257]
9: Plant response rating, Giant foxtail [7, 23]
4: Crabgrass plant response rating [6, 27] | Plant response rating, Morningglory [8, 23] | Plant response rating, Redroot pigweed [9, 23] | Plant response rating (0 to 10; 0 is no effect, 10 is complete control), Redroot pigweed ([9]; Rate 250 g/ha, Postemergence) | Soybean plant response rating [11, 27] | Plant response rating, Wheat [14, 23] | Plant response rating, Wild oats [15, 23]
8: Plant response rating (0 to 10; 0 is no effect, 10 is complete control), Morningglory ([8]; Rate 250 g/ha, Postemergence) | Morningglory plant response rating [8, 27]
3: Plant response rating, B. signalgrass [3, 23] | Giant foxtail plant response rating [7, 21]
6: Giant foxtail plant response rating [7, 22] | Giant foxtail plant response rating [7, 26] | Redroot pigweed plant response rating [9, 27]
0: Bedstraw plant response rating [1, 21] | Bedstraw plant response rating [1, 22] | Plant response rating, Bedstraw [1, 23] | Bedstraw plant response rating [1, 24] | Bedstraw plant response rating [1, 25] | Bedstraw plant response rating [1, 26] | Plant response rating (0 to 10; 0 is no effect, 10 is complete control), Bedstraw ([1]; Rate 250 g/ha, Postemergence) | Bedstraw plant response rating [1, 27] | Blackgrass plant response rating [2, 21] | Blackgrass plant response rating [2, 22] | Plant response rating, Blackgrass [2, 23] | Blackgrass plant response rating [2, 24] | Blackgrass plant response rating [2, 25] | Blackgrass plant response rating [2, 26] | B. signalgrass plant response rating [3, 21] | B. signalgrass plant response rating [3, 22] | B. signalgrass plant response rating [3, 24] | B. signalgrass plant response rating ([3]; Rate 125 g/ha, Postemergence, scale 0 (no effect) to 10 (complete control)) | B. signalgrass plant response rating [3, 26] | Plant response rating (0 to 10; 0 is no effect, 10 is complete control), B. signalgrass ([3]; Rate 250 g/ha, Postemergence) | B. signalgrass plant response rating [3, 27] | Cocklebur plant response rating [4, 21] | Cocklebur plant response rating [4, 22] | Plant response rating, Cocklebur [4, 23] | Cocklebur plant response rating [4, 24] | Cocklebur plant response rating [4, 25] | Cocklebur plant response rating [4, 26] | Plant response rating (0 to 10; 0 is no effect, 10 is complete control), Cocklebur ([4]; Rate 250 g/ha, Postemergence) | Cocklebur plant response rating [4, 27] | Corn plant response rating [5, 21] | Corn plant response rating [5, 22] | Plant response rating, Corn [5, 23] | Corn plant response rating [5, 24] | Corn plant response rating [5, 25] | Corn plant response rating [5, 26] | Plant response rating (0 to 10; 0 is no effect, 10 is complete control), Corn ([5]; Rate 250 g/ha, Postemergence) | Corn plant response rating [5, 27] | Crabgrass plant response rating [6, 21] | Plant response rating (0 to 10; 0 is no effect, 10 is complete control), Giant foxtail ([7]; Rate 250 g/ha, Postemergence) | Morningglory plant response rating [8, 21] | Morningglory plant response rating [8, 26] | Redroot pigweed plant response rating [9, 21] | Redroot pigweed plant response rating [9, 22] | Redroot pigweed plant response rating [9, 26] | Rape plant response rating [10, 21] | Rape plant response rating [10, 22] | Plant response rating, Rape [10, 23] | Rape plant response rating [10, 26] | Soybean plant response rating [11, 21] | Soybean plant response rating [11, 22] | Plant response rating, Soybean [11, 23] | Soybean plant response rating [11, 26] | Sugarbeets plant response rating [12, 21] | Sugarbeets plant response rating [12, 22] | Plant response rating, Sugarbeets [12, 23] | Sugarbeets plant response rating [12, 26] | Velvetleaf plant response rating [13, 21] | Velvetleaf plant response rating [13, 22] | Plant response rating, Velvetleaf [13, 23] | Velvetleaf plant response rating [13, 26] | Wheat plant response rating [14, 21] | Wheat plant response rating [14, 22] | Wheat plant response rating [14, 26] | Wheat plant response rating [14, 27] | Wild oats plant response rating [15, 21] | Wild oats plant response rating [15, 22] | Wild oats plant response rating [15, 26] | Wild oats plant response rating [15, 27] | Nutsedge plant response rating [16, 22] | Plant response rating, Nutsedge [16, 23] | Nutsedge plant response rating [16, 26] | Plant response rating (0 to 10; 0 is no effect, 10 is complete control), Nutsedge ([16]; Rate 250 g/ha, Postemergence) | Nutsedge plant response rating [16, 27] | Rice plant response rating [17, 28] | Rice plant response rating [17, 29] | Rice plant response rating [17, 30] | Rice plant response rating [17, 31] | S. Flatsedge plant response rating [18, 28] | S. Flatsedge plant response rating [18, 29] | S. Flatsedge plant response rating [18, 30] | S. Flatsedge plant response rating [18, 31] | Ducksalad plant response rating [19, 28] | Ducksalad plant response rating [19, 29] | Ducksalad plant response rating [19, 30] | Ducksalad plant response rating [19, 31] | Barnyardgrass plant response rating [20, 28] | Barnyardgrass plant response rating [20, 29] | Barnyardgrass plant response rating [20, 30] | Barnyardgrass plant response rating [20, 31]
5: Plant response rating, Crabgrass [6, 23] | Rape plant response rating [10, 27] | Sugarbeets plant response rating [12, 27]
2: Blackgrass plant response rating [2, 27] | Crabgrass plant response rating [6, 22] | Crabgrass plant response rating [6, 26] | Plant response rating (0 to 10; 0 is no effect, 10 is complete control), Crabgrass ([6]; Rate 250 g/ha, Postemergence) | Giant foxtail plant response rating [7, 27] | Morningglory plant response rating [8, 22] | Plant response rating (0 to 10; 0 is no effect, 10 is complete control), Rape ([10]; Rate 250 g/ha, Postemergence)
1: Plant response rating (0 to 10; 0 is no effect, 10 is complete control), Blackgrass ([2]; Rate 250 g/ha, Postemergence) | Velvetleaf plant response rating [13, 27]
